# According to the supplement of paper PMC10307832:
# What was measured:
# Assay in all cases: relative viability (nuclei count vs DMSO), 5 days (fraction); higher = more cells survive
# [1] = compound: CCc1c2c(nc3ccc(OC(=O)N4CCC(N5CCCCC5)CC4)cc13)-c1cc3c(c(=O)n1C2)COC(=O)[C@]3(O)CC [Irinotecan] + CC(=O)c1c(C)c2cnc(Nc3ccc(N4CCNCC4)cn3)nc2n(C2CCCC2)c1=O [Palbociclib] (partner 0.5 µM)
# Procedure, shortened: (§1)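 Lung cancer cell lines were seeded in 1536-well plates and dosed by pin tool the next day, with either a single drug or a fixed anchor-drug dose combined with five library-drug doses (not always all listed) spaced in √10 steps. Five days later, one step fixed the cells and stained their nuclei (final 0.05% Triton X-100, 1% formaldehyde, 1 ug/ml Hoechst), and nuclei were counted on 4× images. Relative viability is the nuclei count in treated wells divided by the count in vehicle wells, and each value is the median of duplicate plates.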
# [2] = compound: CCc1c2c(nc3ccc(OC(=O)N4CCC(N5CCCCC5)CC4)cc13)-c1cc3c(c(=O)n1C2)COC(=O)[C@]3(O)CC [Irinotecan] + C[C@]1(O)C[C@@H](c2nc(-c3ccc4ccc(-c5ccccc5)nc4c3)c3c(N)nccn32)C1 [Linsitinib] (partner 1 µM)
# Procedure, shortened: as §1
# [3] = compound: CCc1c2c(nc3ccc(OC(=O)N4CCC(N5CCCCC5)CC4)cc13)-c1cc3c(c(=O)n1C2)COC(=O)[C@]3(O)CC [Irinotecan] + O=C(CCCCCCC(=O)Nc1ccccc1)NO [Vorinostat] (partner 1 µM)
# Procedure, shortened: as §1
# [4] = compound: Cn1cc(-c2cnc3ccc4ccc(CS(=O)(=O)NCc5ccccn5)cc4c(=O)c3c2)cn1 [MK-8033] + C[C@]1(O)C[C@@H](c2nc(-c3ccc4ccc(-c5ccccc5)nc4c3)c3c(N)nccn32)C1 [Linsitinib] (partner 1 µM)
# Procedure, shortened: as §1
Cell Line,relative viability ([1]; first compound 0.6325 µM),relative viability ([1]; first compound 2 µM),relative viability ([1]; first compound 6.325 µM),relative viability ([1]; first compound 20 µM),relative viability ([2]; first compound 0.6325 µM),relative viability ([2]; first compound 2 µM),relative viability ([2]; first compound 6.325 µM),relative viability ([2]; first compound 20 µM),relative viability ([3]; first compound 0.6325 µM),relative viability ([3]; first compound 2 µM),relative viability ([3]; first compound 6.325 µM),relative viability ([3]; first compound 20 µM),relative viability ([4]; first compound 0.02 µM),relative viability ([4]; first compound 0.06325 µM),relative viability ([4]; first compound 0.2 µM),relative viability ([4]; first compound 0.6325 µM),relative viability ([4]; first compound 2 µM)
SK-MES-1,0.354,0.342,0.291,0.175,0.997,0.646,0.315,0.281,0.821,0.756,0.372,0.193,1.06,0.995,1.04,1.09,1.09
HOP-62,0.211,0.202,0.187,0.22,0.146,0.158,0.138,0.203,0.234,0.311,0.167,0.188,0.62,0.99,0.898,0.895,1.01
NCI-H520,0.224,0.242,0.214,0.146,0.821,0.737,0.302,0.212,0.442,0.394,0.278,0.162,0.994,0.876,0.844,0.925,0.991
EBC-1,,,,,0.675,0.405,0.211,0.177,,,,,0.938,0.68,0.895,1.05,0.167
BEN,0.45,0.448,0.387,0.534,1.06,0.7,0.3,0.378,0.544,0.726,0.473,0.545,0.906,0.859,0.765,0.844,0.853
NCI-H322M,0.527,0.502,0.458,0.336,0.551,0.467,0.366,0.414,0.734,0.886,0.732,0.32,0.964,0.809,0.869,0.996,0.692
LU99A,0.173,0.179,0.153,0.172,0.233,0.247,0.224,0.238,0.305,0.169,0.124,0.127,0.541,0.517,0.537,0.479,0.478
NCI-H2405,,0.547,0.305,0.143,,0.763,0.294,0.18,,0.956,0.307,0.195,0.882,0.91,0.783,0.831,0.957
